Patent US20180104223A1, “TREATMENT OF PAIN” (PROXIMAGEN LIMITED, priority 2015, published 2018)

How the values were obtained:
[1] = test system: CFA (Complete Freunds Adjuvant) Induced Hypersensitivity in Rat; experiment: CFA induced hypersensitivity in rat, weight bearing (incapacitance tester); type: in vivo, rat (male Sprague Dawley)
Procedure: (3S)-Tetrahydrofuran-3-yl (4S)-4-isopropyl-1,4,6,7-tetrahydro-5H-imidazo[4,5-c]-pyridine-5-carboxylate was investigated (FIG. 1) in the CFA thermal hyperalgesia model, which is an established model for inflammatory pain. […] In more detail:
(§1) Assessment of the anti-hyperalgesic properties of (3S)-tetrahydrofuran-3-yl (4S)-4-isopropyl-1,4,6,7-tetrahydro-5H-imidazo[4,5-c]pyridine-5-carboxylate mesylate salt was determined through measurement of weight bearing following CFA induced hypersensitivity. Naive rats distribute their body weight equally between the two hind paws. However, when the injected (left) hind paw is painful, the weight is re-distributed so that less weight is put on the affected paw (decrease in weight bearing on injured paw). Weight bearing through each hind limb was measured using a rat incapacitance tester (Linton Instruments, UK). Rats were placed in the incapacitance tester with the hind paws on separate sensors and the average force exerted by both hind limbs was recorded over 4 seconds. The injection of CFA also induces an oedema that can be assessed by paw volume; this is measured using a plethysmometer. The rat's hind paw is placed into the cylinder containing a solution and the volume of displaced liquid determines the paw volume.
Naive male, Sprague Dawley rats were acclimatised with food and water available ad libitum. Habituation to the incapacitance tester was performed. Baseline weight bearing and paw volume recordings were taken prior to induction of insult. Inflammatory hypersensitivity was induced by intraplantar injection of CFA (100 ul of 1 mg/ml solution) into the left hind paw. A pre-treatment weight bearing and paw volume measurement was taken to assess hypersensitivity 23 hours post-CFA. Animals were then ranked and randomised according to CFA window in a Latin square design. (3S)-Tetrahydrofuran-3-yl (4S)-4-isopropyl-1,4,6,7-tetrahydro-5H-imidazo[4,5-c]pyridine-5-carboxylate mesylate salt was then given at 150, 250 and 500 mg/kg p.o. (dosed in water at 2 mL/Kg, pH ˜5-6), alongside vehicle and reference group (indomethacin), n=9-10 per group. Weight bearing was assessed in all groups 1, 2 and 4 hours post compound administration. Paw volume was assessed 4 hours post compound administration. Data was analysed by comparing treatment groups to control group at each time point.
Weight bearing (g) readings were taken for both right and left hind paws and the difference calculated. Data is expressed as % reversal of the hypersensitivity to pain, (post dose reading−pre dose reading)/(naïve reading−pre dose reading)×100, where naive weight bearing difference−pre dose weight bearing difference is defined as the CFA window to be reversed. Statistical analysis was conducted by means of repeated measures ANOVA followed by Planned comparison test using InVivoStat (invivostat.co.uk), (p<0.05 considered significant).

[2] = test system: CFA induced oedema, hind paw; experiment: CFA induced oedema in rat, paw volume (plethysmometer); type: in vivo, rat (male Sprague Dawley); conditions: 150, 250 and 500 mg/kg p.o., 4 hours post compound administration
Procedure: as §1
Naive male, Sprague Dawley rats were acclimatised with food and water available ad libitum. […] Weight bearing was assessed in all groups 1, 2 and 4 hours post compound administration. Paw volume was assessed 4 hours post compound administration. Data was analysed by comparing treatment groups to control group at each time point.

SMILES	reversal of hypersensitivity (weight bearing) ([1]; 150 mg/kg p.o., rat, 1, 2 and 4 hours post dose)	reversal of hypersensitivity (weight bearing) ([1]; 250 mg/kg p.o., rat, 4 hours post dose)	reversal of hypersensitivity (weight bearing) ([1]; 500 mg/kg p.o., rat, 1, 2 and 4 hours post dose)	time of maximum effect on hypersensitivity ([1]; 500 mg/kg p.o., rat, post dose)	effect on paw volume [2]	efficacy compared with benchmark indomethacin in the CFA thermal hyperalgesia model ([1]; FIG. 1, summary statement)	efficacy in the CFA thermal hyperalgesia model (inflammatory pain) ([1]; FIG. 1, summary statement)
CC(C)[C@H]1c2nc[nH]c2CCN1C(=O)O[C@H]1CCOC1.CS(=O)(=O)O [(3S)-Tetrahydrofuran-3-yl (4S)-4-isopropyl-1,4,6,7-tetrahydro-5H-imidazo[4,5-c]pyridine-5-carboxylate, Methananesulfonic Acid Salt]	no significant reversal of hypersensitivity at any time point	significant reversal	effective at all time points	4 h	No effect	–	–
CC(C)[C@H]1c2[nH]cnc2CCN1C(=O)O[C@H]1CCOC1 [(3S)-Tetrahydrofuran-3-yl (4S)-4-isopropyl-1,4,6,7-tetrahydro-5H-imidazo[4,5-c]pyridine-5-carboxylate]	–	–	–	–	–	comparably in efficacy to the gold standard benchmark indomethacin	effective in a dose-dependent manner
